Test results taken from patent US20250281476A1, “EFINACONAZOLE ORAL COMPOSITION” (priority 2020, published 2025).
Values after ≈ are worked out from the molar mass of the structure shown. Read-outs that look alike come from different tables or passages of the source.

Experiments:
[1] = cited from earlier work
[2] = in vivo; conditions: for AUC(0-t): AUCt; for concentration at 0.5 h: read-out: Blood voriconazole concentration, Time 0.5 hr; for concentration at 1 h: read-out: Blood voriconazole concentration, Time 1 hr; for concentration at 2 h: read-out: Blood voriconazole concentration, Time 2 hr; for concentration at 4 h: read-out: Blood voriconazole concentration, Time 4 hr; for concentration at 6 h: read-out: Blood voriconazole concentration, Time 6 hr; for concentration at 8 h: read-out: Blood voriconazole concentration, Time 8 hr; for concentration at 10 h: read-out: Blood voriconazole concentration, Time 10 hr
Description: 24 male beagle dogs were divided into 4 groups, 6 animals per group. Voriconazole as a control drug was once administered to the animals via an oral route under fasting conditions. Efinaconazole as a test drug was once administered to the animals via intravenous and oral routes under fasting conditions. Thereafter, the pharmacokinetic (PK) profiles of the drugs were determined to calculate PK parameters of the drugs and evaluate the pharmacokinetics of the drugs. Specific test conditions and methods are as follows.
The test substances were weighed with an electronic balance. Each of the weighed test substances was placed in a glass container and 0.5% methylcellulose in a 1% Tween 80 solution (distilled water) as an excipient was added thereto. The mixture was vortexed and sonicated to prepare a homogeneous test material.
For intravenous administration, the doses of efinaconazole (intravenous administration group G1) were calculated based on the body weights of the animals. To the test substance was added PEG400 as an excipient whose volume corresponded to 30% of the total volume of a final test material. The mixture was vortexed and sonicated for complete dissolution. To the solution was added ethanol in an amount corresponding to 20% of the total volume of the test material, followed by homogenization by sonication. Then, 0.9% saline was added in an amount corresponding to 50% of the total volume of the test material, followed by vortexing and sonication to in situ prepare the test material in a homogeneous state.
• Routes of administration: Intravenous (IV) and oral (PO) • Doses: G1 (Voriconazole)—6 mg/5 ml/kg (PO); G2 (Efinaconazole)—6 mg/5 ml/kg (PO); G3 (Efinaconazole-Polymer)—6 mg/5 ml/kg (PO); G1 (Efinaconazole)—0.5 mg/I ml/kg (IV) • Frequency of administration: Single dose (once daily)—(QD)
4 ml of blood was collected from each point and centrifuged. 500 μl of the plasma supernatant was dispensed in a 1.5 ml EP tube and the remaining plasma was dispensed into a set of 1.5 ml EP tubes. The samples were stored in a deep freezer at −80° C. After completion of the testing, the blood collection records, sample information certificates, dispensing records, clinical symptom observation records, medication/blood collection results, and test samples (plasma samples) were sent to a specialized analysis agency.
After storage in a freezer, the samples were analyzed by LC/MS/MS and their pharmacokinetic parameters were calculated in a noncompartmental manner using “Phoenix WinNonlin (Version 8.2 or higher, Certara L. P)” software.
AUCt, a bioavailability parameter, is the area under the plasma concentration-time curve from the time of administration medication to the last time point of blood collection with a measurable concentration and was calculated by the trapezoidal formula. Cmax is the highest plasma drug concentration read from the plasma drug concentration-time curve of each sample and Tmax is the time taken to reach the highest plasma drug concentration read from the plasma drug concentration-time curve of each sample. AUC∞ is the area under the plasma concentration-time curve from the time of administration to time infinity.

[3] = Stability test of 10% solutions at room temperature and 65° C., purity by HPLC; format: physicochemical; conditions: solution (10%)
Description: The stability of the co-crystal of efinaconazole to temperature and a solution was evaluated and compared with that of efinaconazole by the following experimental method.
A co-crystalline form of efinaconazole was prepared.

[4] = male, beagle, dog, in vivo, 0.5 mg/kg, Blood efinaconazole concentration, Time 12 hr
[5] = male, beagle, dog, in vivo, 6 mg/kg, Geometric Means
[6] = male, beagle, dog, in vivo, po, 6 mg/kg, Cmax
[7] = male, beagle, dog, in vivo, po, 6 mg/kg, Geometric Means
[8] = male, beagle, dog, in vivo, po, 6 mg/kg, Geometric Means, Cmax
[9] = male, dog, in vivo, 6 mg/kg, beagle dog, fasting, single 6 mg/kg P.O, group Mean (6 animals)
[10] = male, dog, in vivo, 6 mg/kg, beagle dog, fasting, single 6 mg/kg P.O, individual animals

C=C1CCN([C@H](C)[C@](O)(Cn2cncn2)c2ccc(F)cc2F)CC1 [Efinaconazole]
water solubility [1]: ~610 µg/mL (≈ 1750 µM)
Blood efinaconazole concentration, Time 8 hr ([2]; dog, in vivo, 0.5 mg/kg): BLQ
Blood efinaconazole concentration, Time 10 hr ([2]; dog, in vivo, 0.5 mg/kg): BLQ
Blood efinaconazole concentration, Time 12 hr ([2]; dog, in vivo, 0.5 mg/kg): BLQ
Blood efinaconazole concentration, Time 24 hr ([2]; dog, in vivo, 0.5 mg/kg): BLQ
bioavailability compared with other antifungals when administered orally ([2]; dog, in vivo, po): higher than those of other antifungals, including voriconazole and itraconazole
concentration at 0.053 h ([2]; male, beagle, dog, in vivo, 0.5 mg/kg, Blood efinaconazole concentration, Time 0.053 hr): 262 ng/mL
concentration at 0.25 h ([2]; male, beagle, dog, in vivo, 0.5 mg/kg, Blood efinaconazole concentration, Time 0.25 hr): 168 ng/mL
concentration at 12 h [2, 4]: 1.36 ng/mL
concentration at 12 hr [2, 4]: 3.52 ng/mL
concentration at 24 h ([2]; male, beagle, dog, in vivo, 0.5 mg/kg, Blood efinaconazole concentration, Time 24 hr): 0 ng/mL
AUC(0-t) ([2]; male, beagle, dog, in vivo, 0.5 mg/kg, Geometric Means): 245 ng·h/mL
Cmax ([2]; male, beagle, dog, in vivo, 0.5 mg/kg, Geometric Means, Cmax): 318 ng/mL
bioavailability ([2]; male, beagle, dog, in vivo, 6 mg/kg): 51.4 ± 24.6%
concentration at 2 hr ([2]; male, beagle, dog, in vivo, 6 mg/kg, Blood efinaconazole concentration, Time 2 hr): 177 ng/mL
concentration at 4 hr ([2]; male, beagle, dog, in vivo, 6 mg/kg, Blood efinaconazole concentration, Time 4 hr): 64.9 ng/mL
concentration at 6 hr ([2]; male, beagle, dog, in vivo, 6 mg/kg, Blood efinaconazole concentration, Time 6 hr): 27.5 ng/mL
AUC(0-t) [2, 5]: 1440 ng·h/mL
Cmax ([2]; male, beagle, dog, in vivo, iv, 0.5 mg/kg, Cmax): 322 ± 58.6 ng/mL
Tmax ([2]; male, beagle, dog, in vivo, iv, 0.5 mg/kg, Tmax): 4.98 min
Cmax [2, 6]: 925 ± 236 ng/mL
AUC(0-t) [2, 7]: 1440 ng·h/mL
Cmax [2, 8]: 904 ng/mL
HPLC (%) After 1 week ([3]; 65° C.): 99.55%
Related substances (%) After 1 week ([3]; 65° C.): 0.45%
HPLC (%) After 2 weeks ([3]; 65° C.): 99.46%
Related substances (%) After 2 weeks ([3]; 65° C.): 0.54%
HPLC (%) After 4 weeks ([3]; 65° C.): 98.47%
Related substances (%) After 4 weeks ([3]; 65° C.): 1.53%
HPLC (%) After 1 week ([3]; room temp.): 99.73%
Related substances (%) After 1 week ([3]; room temp.): 0.27%
HPLC (%) After 2 weeks ([3]; room temp.): 99.61%
Related substances (%) After 2 weeks ([3]; room temp.): 0.39%
HPLC (%) After 4 weeks ([3]; room temp.): 99.60%
Related substances (%) After 4 weeks ([3]; room temp.): 0.40%

C[C@@H](c1ncncc1F)[C@](O)(Cn1cncn1)c1ccc(F)cc1F [Voriconazole]
AUCt/AUC∞ ([2]; beagle dog, fasting, single 6 mg/kg P.O, group Mean (6 animals)): 51.125
AUC(0-t) [2, 5]: 53500 ng·h/mL
AUC(0-t) ([2]; male, beagle, dog, in vivo, po, 6 mg/kg): 53900 ng·h/mL
AUC(0-inf) ([2]; male, beagle, dog, in vivo, po, 6 mg/kg, AUC∞): 109000 ng·h/mL
Cmax [2, 6]: 3670 ng/mL
AUC(0-t) [2, 7]: 53500 ng·h/mL
Cmax [2, 8]: 3670 ng/mL
concentration at 0.053 h ([2]; male, dog, in vivo, 6 mg/kg, beagle dog, fasting, single 6 mg/kg P.O, group Mean (6 animals), read-out: Blood voriconazole concentration, Time 0.053 hr): 443 ng/mL
concentration at 0.25 h ([2]; male, dog, in vivo, 6 mg/kg, beagle dog, fasting, single 6 mg/kg P.O, group Mean (6 animals), read-out: Blood voriconazole concentration, Time 0.25 hr): 2720 ng/mL
concentration at 0.5 h [2, 9]: 3410 ng/mL
concentration at 1 h [2, 9]: 3440 ng/mL
concentration at 2 h [2, 9]: 3090 ng/mL
concentration at 4 h [2, 9]: 2950 ng/mL
concentration at 6 h [2, 9]: 2610 ng/mL
concentration at 8 h [2, 9]: 2460 ng/mL
concentration at 10 h [2, 9]: 2270 ng/mL
concentration at 12 h ([2]; male, dog, in vivo, 6 mg/kg, beagle dog, fasting, single 6 mg/kg P.O, group Mean (6 animals), read-out: Blood voriconazole concentration, Time 12 hr): 2180 ng/mL
concentration at 24 h ([2]; male, dog, in vivo, 6 mg/kg, beagle dog, fasting, single 6 mg/kg P.O, group Mean (6 animals), read-out: Blood voriconazole concentration, Time 24 hr): 1500 ng/mL
concentration at 0.5 h [2, 10]: 3280 ng/mL
concentration at 1 h [2, 10]: 3280 ng/mL
concentration at 2 h [2, 10]: 3000 ng/mL
concentration at 4 h [2, 10]: 2940 ng/mL
concentration at 6 h [2, 10]: 2660 ng/mL
concentration at 8 h [2, 10]: 2430 ng/mL
concentration at 10 h [2, 10]: 2250 ng/mL
concentration at 12 h ([2]; male, dog, in vivo, 6 mg/kg, beagle dog, fasting, single 6 mg/kg P.O, individual animals, read-out: Blood voriconazole concentration, Time 12 hr): 2160 ng/mL
concentration at 24 h ([2]; male, dog, in vivo, 6 mg/kg, beagle dog, fasting, single 6 mg/kg P.O, individual animals, read-out: Blood voriconazole concentration, Time 24 hr): 1470 ng/mL
Cmax ([2]; male, dog, in vivo, po, 6 mg/kg, beagle dog, fasting, single 6 mg/kg P.O, individual animals, read-out: Cmax): 3520 ng/mL
